This note sets out measurements from patent US20250035641A1, “COMPOSITIONS AND METHODS RELATED TO PROTEIN LABELING” (The Chinese University of Hong Kong, priority 2023, published 2025).

Each structure is given as a SMILES string.

Holding throughout (format): cell-based
The target in assay [1] is T1, fOGT (FKBP12^F36V fused-OGT) (Homo sapiens, UniProt P62942, F37V).
T1 construct: expressed in transfected cells; host or cells: HEK293T
As to the kind of experiment: Intact cell CETSA (fOGT engagement). As to conditions: HEK-293T, 4 h, HEK293T HTN-BRD4:fOGT=1:0.05.
Description: For fOGT engagement, we established a cellular thermal shift assay (CETSA). Using same co-expressing system, we treated cells with OGTAC 1-3 for 4 h, and conducted heat challenge to intact cells at a series of temperature to determine the corresponding melting temperature (Tm). […] HEK293T cells (2.5×10^6 cells) were seeded in 10 cm culture dish overnight for attachment. On the next day, cells were transfected with HTN-BRD4:fOGT=1:0.05 plasmid for 24 hours until ˜90% confluence. After treatment with 5 μM compounds or DMSO, cells were collected and washed with PBS. Subsequently, cells were re-suspended in 500 μL PBS and equally divided into 50 μL aliquots. The tubes were subjected to heat challenge at 37-53° C. for 5 mins, followed by cooling on ice. Cells were lysed by three repeated freeze-thaw cycles with liquid nitrogen and water bath. Lastly, cells were centrifuged at 14000 RPM for 15 mins and supernatants were collected for Western Blot analysis.

Another assay concerns HTN-EZH2. Kind of assay: O-GlcNAc inducing effects on HTN-EZH2. As to conditions: HTN-EZH2:fOGT=1:0.01. The source says:
FIG. 13: Evaluation of O-GlcNAc inducing effects of OGTAC-1/2/3 on HTN-EZH2 and dose-dependent effect of OGTAC-1 on HTN-EZH2. In the treatment group, transfection ratio is HTN-EZH2:fOGT:=1:0.01.
As there are >20,000 commercially available plasmids for HaloTag-fused human proteins,46 OGTACs can be rapidly tested in a wide range of POIs, enabling time- and dose-dependent manipulation of their specific O-GlcNAcylation level.

A further assay deals with HTN-CK2α (Homo sapiens, UniProt P68400). As to the kind of experiment: Chemoenzymatic labelling and mass-shift assay, HTN-CK2α. Set-up: expressed in transfected cells; host or cells: HEK293T (A5, A6); HeLa (A8). As to conditions: 1 μM. The source says: Ck2α is a well-studied OGT substrate.^17,25 Its Ser347 is conservatively O-GlcNAcylated and this modification was reported to affect its kinase activity.^16,17 We first co-expressed HTN-Ck2α and fOGT in HEK293T cells at different ratio and found the basal O-GlcNAcylation level of HTN-Ck2α was higher than what we detected in the case of HTN-BRD4. Therefore, a lower ratio of fOGT expression (1:100) was selected for the assessment of OGTAC potency (FIG. 9). […] The induction of specific O-GlcNAcylation on HTN-Ck2α was further confirmed by mass-shift assay. […] To validate the direct binding to both fOGT and HTN-Ck2α is critical, we exploited AP 1867 and rhodamine ligand, which bind to fOGT and HTN-Ck2α respectively, to co-treat with OGTAC-1.
For each chemoenzymatic labelling reaction. 2×10^5 HEK293T cells were seed to each well of 6 well plate. After cells attached, transfection reagents and plasmids were prepared and added in DMEM. After 24 h transfection, media were replaced by fresh warm complete media with DMSO or probes. […] The supernatant of lysate was then quantified by bicinchoninic acid (BCA) assay and normalized to 2 mg/mL with 1% SDS in buffer. […]

HTN-CK2α, sequence (P68400 with tags, fused parts or gaps): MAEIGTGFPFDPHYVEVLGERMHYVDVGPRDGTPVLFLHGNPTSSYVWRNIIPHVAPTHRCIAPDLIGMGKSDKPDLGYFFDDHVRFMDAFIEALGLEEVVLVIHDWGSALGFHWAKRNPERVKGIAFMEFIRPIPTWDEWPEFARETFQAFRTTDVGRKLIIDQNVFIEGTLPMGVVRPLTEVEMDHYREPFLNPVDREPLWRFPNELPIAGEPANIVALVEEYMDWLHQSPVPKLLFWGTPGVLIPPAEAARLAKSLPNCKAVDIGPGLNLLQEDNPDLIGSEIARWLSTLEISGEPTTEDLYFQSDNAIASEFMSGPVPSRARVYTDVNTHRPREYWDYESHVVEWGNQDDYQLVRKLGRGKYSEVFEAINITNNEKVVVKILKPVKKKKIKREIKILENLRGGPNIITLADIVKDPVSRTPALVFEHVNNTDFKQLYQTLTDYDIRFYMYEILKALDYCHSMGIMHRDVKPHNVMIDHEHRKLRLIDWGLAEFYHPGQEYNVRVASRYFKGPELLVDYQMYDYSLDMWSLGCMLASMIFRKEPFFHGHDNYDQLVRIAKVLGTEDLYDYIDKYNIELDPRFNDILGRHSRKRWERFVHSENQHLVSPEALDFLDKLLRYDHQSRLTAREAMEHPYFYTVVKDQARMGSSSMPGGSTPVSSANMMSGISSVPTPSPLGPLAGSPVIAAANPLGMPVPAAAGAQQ
HTN-CK2α, sequence (P62942+O15294 fused P62942:F37V partner): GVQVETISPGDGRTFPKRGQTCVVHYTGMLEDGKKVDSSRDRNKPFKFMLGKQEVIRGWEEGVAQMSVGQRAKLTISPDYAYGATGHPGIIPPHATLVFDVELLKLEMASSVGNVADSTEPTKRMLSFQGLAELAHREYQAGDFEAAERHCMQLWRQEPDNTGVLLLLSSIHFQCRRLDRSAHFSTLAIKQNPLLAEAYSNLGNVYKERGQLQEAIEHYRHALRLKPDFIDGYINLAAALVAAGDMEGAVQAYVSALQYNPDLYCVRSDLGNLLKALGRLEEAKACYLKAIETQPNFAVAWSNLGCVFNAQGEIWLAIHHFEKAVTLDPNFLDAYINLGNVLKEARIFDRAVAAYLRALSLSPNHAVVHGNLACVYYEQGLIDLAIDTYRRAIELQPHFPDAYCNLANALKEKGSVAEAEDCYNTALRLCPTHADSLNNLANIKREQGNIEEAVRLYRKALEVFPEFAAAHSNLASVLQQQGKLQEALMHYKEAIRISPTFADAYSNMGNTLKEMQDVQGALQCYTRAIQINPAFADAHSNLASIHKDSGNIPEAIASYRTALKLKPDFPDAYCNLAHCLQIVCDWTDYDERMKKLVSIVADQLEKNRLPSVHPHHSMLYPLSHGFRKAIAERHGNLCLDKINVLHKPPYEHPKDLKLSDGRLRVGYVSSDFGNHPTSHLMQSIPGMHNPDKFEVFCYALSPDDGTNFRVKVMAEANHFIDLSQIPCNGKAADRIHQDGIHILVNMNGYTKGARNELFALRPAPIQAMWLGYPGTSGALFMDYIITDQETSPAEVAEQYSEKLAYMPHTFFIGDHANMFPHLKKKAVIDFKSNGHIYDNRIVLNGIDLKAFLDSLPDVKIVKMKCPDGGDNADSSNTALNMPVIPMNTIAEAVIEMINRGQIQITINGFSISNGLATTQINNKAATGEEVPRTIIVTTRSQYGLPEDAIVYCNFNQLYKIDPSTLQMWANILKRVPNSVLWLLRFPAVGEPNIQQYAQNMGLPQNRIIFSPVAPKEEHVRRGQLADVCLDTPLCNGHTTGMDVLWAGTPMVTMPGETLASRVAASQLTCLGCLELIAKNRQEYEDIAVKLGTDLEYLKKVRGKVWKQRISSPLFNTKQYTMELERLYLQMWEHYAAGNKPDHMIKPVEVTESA
T1 sequence (P62942 whole entry F37V, the tested form may be a part): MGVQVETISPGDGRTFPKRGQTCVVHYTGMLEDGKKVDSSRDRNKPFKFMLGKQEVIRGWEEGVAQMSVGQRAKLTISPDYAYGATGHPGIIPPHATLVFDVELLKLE

With `CC[C@H](C(=O)N1CCCC[C@H]1C(=O)O[C@H](CCc1ccc(OC)c(OC)c1)c1cccc(OCC(=O)NCCOCCOCCCCCCCl)c1)c1cc(OC)c(OC)c(OC)c1` [OGTAC-1, (R)-1-(3-(2-((2-(2-((6-chlorohexyl)oxy)ethoxy)ethyl)amino)-2-oxoethoxy)phenyl)-3-(3,4-dimethoxyphenyl)propyl (S)-1-((S)-2-(3,4,5-trimethoxyphenyl)butanoyl) piperidine-2-carboxylate], the ΔTm at 5 µM in assay [1] came to 1.4 °C. Further, the “O-GlcNAcylation-inducing effect on HTN-EZH2” value with HTN-EZH2 is given as “highest O-GlcNAcylation-inducing effects among the three OGTACs”. Besides, the “HTN-CK2α O-GlcNAcylation in mass-shift assay” value on HTN-CK2α is on record as “increased HTN-CK2α O-GlcNAcylation”.

The term ΔTm denotes the change in melting temperature against a reference sample.
